# Several values for one entry are separate records, joined by “and”; a condition that tells them apart may be missing. Identical values can stand only once.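 Cultured in 96-well plates, cells were exposed to test compound for 48 hours across five concentrations. Here, GI50 denotes the concentration required for 50% inhibition of growth. TGI marks complete inhibition of growth.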
# What was measured:
# Assay in all cases: growth of human tumour cells (NCI), 48 h
# [1] = test system: COLO 205 colon
# [2] = test system: M14 melanoma
# [3] = test system: IGROV1 ovarian
# [4] = test system: TK-10 renal
# [5] = test system: DU-145 prostate
# [6] = test system: NCI/ADR-RES ovarian
# [7] = test system: OVCAR-8 ovarian
# [8] = test system: SF-295 CNS
# [9] = test system: A498 renal
# [10] = test system: SW-620 colon
Structure (SMILES),GI50 [1],TGI [1],GI50 [2],TGI [2],GI50 [3] [µM],TGI [3] [µM],GI50 [4],TGI [4],GI50 [5],TGI [5],GI50 [6],TGI [6],GI50 [7],TGI [7],GI50 [8],TGI [8],GI50 [9],TGI [9] [µM],GI50 [10],TGI [10]
CCSc1nc(N)c(C#N)c(-c2ccco2)c1C#N,30.2 µM,> 100 µM,48.1 µM,> 100 µM,36.8,> 100,21.3 µM,78.1 µM,42.6 µM,> 100 µM,34 µM,> 100 µM,53.6 µM,> 100 µM,47.7 µM,> 100 µM,26.5 µM,> 100,42.2 µM,> 100 µM
Brc1cccc(-c2cc(-c3ccc4nccnc4c3)[nH]n2)c1,0.286 µM,3.93 µM,0.43 µM,> 250 µM,0.877,> 250,2.95 µM,> 250 µM,1.09 µM,> 200 µM,0.318 µM,34.3 µM,1.39 µM,> 250 µM,1.11 µM,> 250 µM,0.418 µM,1.86,0.273 µM,> 250 µM
Nc1ncccc1-c1nc2ccc(-c3ccccc3)nc2n1-c1ccc(C2(N)CCC2)cc1,0.422 µM,2.14 µM,1.4 µM,2.96 µM,0.0342,0.863,0.719 µM,8.01 µM,2.98 µM,15 µM,2.43 µM,14.6 µM,2.06 µM,6.24 µM,0.256 µM,2.3 µM,0.0791 µM,0.654,1.53 µM,3.35 µM
CC1=C(C(=O)Nc2ccc(F)c(Cl)c2)C(c2ccccc2O)NC(=O)N1 (stereo unspecified),> 100 µM,> 100 µM,69.9 µM,> 100 µM,50.2,> 100,32.4 µM,67.9 µM,> 100 µM,> 100 µM,> 100 µM,> 100 µM,> 100 µM,> 100 µM,94.5 µM,> 100 µM,> 100 µM,> 100,> 100 µM,> 100 µM
Cn1nnc2c(C(N)=O)ncn2c1=O,,> 100 µM,,> 100 µM,,> 100,,> 100 µM,,> 100 µM,,> 100 µM,,> 100 µM,,> 100 µM,> 100 µM,> 100,,> 100 µM
CN1CCN(c2cc3nc4ccccc4n(-c4ccc(Cl)cc4)c-3cc2=N)CC1,> 100 µM,> 100 µM,21.4 µM,43.8 µM,17.2,53.5,36.1 µM,> 100 µM,37.8 µM,> 100 µM,32.1 µM,> 100 µM,13.7 µM,38.4 µM,23.4 µM,59.5 µM,> 100 µM,> 100,23.9 µM,> 100 µM
NS(=O)(=O)c1cccc(-c2ccc3c(NC(=O)C4CC4)n[nH]c3c2)c1,> 14.5 µM,> 22.9 µM,12.3 µM,> 25 µM,> 25,> 25,> 25 µM,> 25 µM,14.7 µM,> 25 µM,> 25 µM,> 25 µM,24.3 µM,> 25 µM,> 25 µM,> 25 µM,> 19.8 µM,> 25,> 15.1 µM,> 25 µM
O=S(=O)(NC1=NCCN1C(=S)SN1CCn2c1nsc2=S)c1cccc(OC(F)(F)F)c1,13.3 µM,> 100 µM,13 µM,28.1 µM,9.86,46.6,13.8 µM,29.7 µM,14.1 µM,29.6 µM,12 µM,44.8 µM,11 µM,65.1 µM,23.6 µM,63.3 µM,22.6 µM,42,6.7 µM,> 100 µM
CC/C=C\C/C=C/C=C1/C(=O)C=C[C@@H]1C/C=C\CCCC(=O)OC,2.14 µM,5.23 µM,3.22 µM,11.8 µM,2.95,10.2,4.13 µM,15.4 µM,4.55 µM,17.4 µM,3.32 µM,> 100 µM,2.75 µM,> 100 µM,3.5 µM,14 µM,8.68 µM,23,1.11 µM,7.68 µM
COc1ccc2c(c1)C(=O)c1c-2c(N2CCNCC2)nc2ccccc12,1.66 µM,3.28 µM,1.91 µM,3.51 µM,2.37,8.7,8.36 µM,23.6 µM,1.89 µM,4.73 µM,6.33 µM,23.7 µM,5.81 µM,23.4 µM,10.4 µM,27.4 µM,7.4 µM,21.1,1.32 µM,2.6 µM
CCN(CC)C(=S)SSC(=S)N(CC)CC,17 µM and 15.4 µM,31.8 µM and 30.1 µM,12.1 µM and 12.6 µM,28.9 µM and 28.1 µM,142,543,21.9 µM and 34.2 µM,43.4 µM and 99.7 µM,24.5 µM and 31.7 µM,> 59.8 µM and 133 µM,18.1 µM and 17.6 µM,39.9 µM and 37.9 µM,18.8 µM and 15.8 µM,50.7 µM and 33.5 µM,11.4 µM and 50.8 µM,> 50.2 µM and 278 µM,49.9 µM and 109 µM,228,16.1 µM and 17 µM,30.4 µM and 32.6 µM
Cc1c2ccncc2c(C)c2c1c1cc(CO)ccc1n2C,0.373 µM,1.94 µM,0.687 µM,3.27 µM,0.214,1.76,0.378 µM,1.91 µM,0.653 µM,6.02 µM,0.551 µM,7.5 µM,0.449 µM,10.1 µM,0.383 µM,2.5 µM,0.02 µM,0.0531,0.297 µM,10.9 µM
C=C1C(=O)O[C@H]2[C@H]1CC/C(CNC(=O)/C=C/c1ccccc1)=C\CC[C@@]1(C)O[C@@H]21,0.966 µM,2.6 µM,1.15 µM,3.23 µM,1.7,5.01,1.42 µM,3.03 µM,0.603 µM,1.88 µM,3.29 µM,14.5 µM,2.44 µM,9.78 µM,5.25 µM,18.7 µM,1.96 µM,4,0.577 µM,2.32 µM
O=c1c(O)cccn1CCCN(CCCn1cccc(O)c1=O)CCn1cccc(O)c1=O,21.6 µM,> 100 µM,5.41 µM,60.2 µM,23.6,> 100,7.92 µM,> 100 µM,20.1 µM,> 100 µM,> 100 µM,> 100 µM,2.26 µM,> 100 µM,3.63 µM,> 100 µM,22.9 µM,> 100,9.02 µM,> 100 µM
NNc1c2ccccc2nc2ccccc12,4.63 µM,18.3 µM,6.11 µM,21.8 µM,3.07,20.8,8.32 µM,26.7 µM,10.9 µM,> 100 µM,3.76 µM,27.4 µM,5.09 µM,30.7 µM,1.88 µM,14.9 µM,1.43 µM,17.5,4.06 µM,27.4 µM
Cc1oc2c(c1C(=O)N1CC[C@@H](N)C1)C(=O)c1c(c(O)c3ccccc3c1O)C2=O,0.643 µM,1.97 µM,1.41 µM,2.96 µM,1.27,3.94,3.07 µM,16.3 µM,1.06 µM,15.5 µM,2.39 µM,8.56 µM,1.25 µM,4.65 µM,0.272 µM,1.79 µM,3.38 µM,18.9,1.08 µM,7.28 µM
O=[N+]([O-])c1ccc2c(Nc3ccccc3-c3ccccc3Nc3c4ccccc4nc4cc([N+](=O)[O-])ccc34)c3ccccc3nc2c1,,9.53 µM,,18.4 µM,,36.1,,36.9 µM,,35.2 µM,,25.7 µM,,39.9 µM,,60.5 µM,,52.3,,11.1 µM
Nc1n[nH]c2ccc([C@@H]3Nc4cc5[nH]ncc5cc4[C@H]4C5CCC(C5)[C@@H]34)cc12 (stereo partly specified),0.424 µM,> 40.6 µM,0.294 µM,> 100 µM,0.533,41.8,17.2 µM,> 95.9 µM,0.391 µM,> 100 µM,0.807 µM,> 100 µM,0.511 µM,> 100 µM,0.257 µM,19.2 µM,0.174 µM,0.822,0.392 µM,> 100 µM
